Reference: US11279708B2, “Amidino- and amino-rocaglates as novel translation inhibitors and anticancer agents” (priority 2019, dated 2022)
Blank lines part the entries; values can stand above or below the compound they belong to.

Columns and labels:
[1] = tested on: eIF4A-dependent translation; assay: in vitro translation assay, bicistronic FF/HCV/Ren reporter mRNA in Krebs-2 extracts; format: biochemical; details: for IC50 / translation inhibition (in words): bicistronic FF/HCV/Ren mRNA; for IC50: FIG. 14/15, read-out: IC50, inhibition of cap-dependent translation (FF relative to REN)
Experimental: Structure-Activity Relationships. With a number of amidino-rocaglates and amino-rocaglates in hand, we evaluated their inhibition of eIF4A-dependent translation using an in vitro assay as depicted in FIG. 14, where a bicistronic reporter mRNA was designed for translation in Krebs-2 extracts. In FIG. 14 the following description applies (a) IC50 was determined from fitted sigmoid curves; […] indicates the concentration of compound that inhibits cap-dependent translation by 50%, which was normalized by cap-independent translation. For its determination, the bicistronic reporter FF/HCV/Ren mRNA was used to produce Firefly luciferase (cap-dependent) and Renilla luciferase (cap-independent) in Krebs-2 extracts in the presence of indicated compounds at various concentrations. In particular, translation of Firefly luciferase (FF) is cap-dependent and depends on eIF4A activity; in contrast, translation of Renilla luciferase (REN) utilizes the HCV internal ribosome entry site (IRES) which functions independently of eIF4A. IC50's were determined by the inhibition of FF relative to REN obtained in the presence of compound relative to vehicle controls and normalized to REN as an internal control. […] In accordance with the eIF4A-RNA-rocaglamide (2) co-crystallographic analysis (FIG. 4), the amide carbonyl of 2 interacts with Gln195 of eIF4A as a H-bond acceptor, while the tertiary hydroxyl of 2 serves as a H-bond donor to an RNA base. […] To further verify the hypothesis, amidino-rocaglates (pKa of N—H˜26.7-30.7 in DMSO, strong H-bond donors) and amino-rocaglates (pKa of N—H˜36 to 44 in DMSO, weak H-bond donors) were next evaluated. […] Conversely, benzyl amidine 9e had IC50=60 nM, whereas the methylene tether may allow conformational adjustment to avoid rigid repulsion in the binding pocket.
The rocaglate collection was also tested in in vitro translation assays using cell-free extracts with a previously described bicistronic mRNA containing the HCV IRES, which is not dependent on eIF4A activity and served as an internal control (FIG. 19C).
(§1) In Vitro Translation Assays. In vitro translation assays performed in Krebs-2 cell extracts were supplemented with 5 mM MgCl2, 30 mM Tris-HCl (pH 7.5), 1.5 mM ATP, 0.1 mM GTP, 0.6 mM CTP, 10 mM dipotassium creatine phosphate, 80 μg/mL creatine kinase, and 0.04 mM amino acids. The specified mRNA reporters were added to each reaction at a final concentration of 10 ng/μL. The translation reactions were incubated with or without compound for 60 minutes at 30° C. prior to the measurement of luciferase activities.
(§2) FIGS. 19A-19C. Rocaglate activity profiling. 19A. Assessing eIF4A1:poly r(AG)8 (SEQ ID NO: 2) RNA binding by FP in the presence of 10 μM rocaglate. Values are expressed relative to vehicle controls and data is rank ordered. n=3±SD. 19B. The change in polarization obtained with eIF4A1:poly r(AG)8 (SEQ ID NO: 2) and eIF4A2:poly r(AG)8 (SEQ ID NO: 2) RNA. Pearson r=0.814; p<0.0001. 19C. Inhibition of cap-dependent translation by rocaglates was measured using the indicated mRNA bicistronic reporter (4 ng/ul) in Krebs-2 extracts at a final compound concentration of 2 μM. n=3±SD.
FIG. 35A-35E are plots showing dose-response curve of FF-HCV-Ren mRNA translation in Krebs extracts with IC50s shown for inhibition of cap-dependent protein synthesis. Values are plotted relative to DMSO controls. n=2 technical replicates performed in duplicate.

[2] = tested on: cap-dependent translation; assay: in vitro translation of (AG)10- and (UC)10-FF/HCV/Ren mRNA reporters in Krebs-2 extracts; format: biochemical; details: cap-proximal (AG)10 or (UC)10
Experimental: Rocaglates show differing mRNA targeting spectra in translation assays. The in vitro experiments described above investigating the rocaglate-mediated inhibition of cap-dependent translation were performed at a fixed rocaglate concentration (2 μM) using a generic bicistronic mRNA reporter in Krebs-2 cell-free translation extracts (FIG. 19C). To better assess the consequences of eIF4A:polypurine clamping on the initiation process, we designed a series of bicistronic reporters harboring cap-proximal polypurine tracks of varying lengths in their 5′ leader region (FIG. 22A). […] We reasoned that these reporters would provide a sensitized readout for rocaglate-induce clamping of eIF4A at this location.
We next tested the response of mRNA reporters containing cap-proximal (AG)10 or (UC)10 sequences (FIG. 22A). […] The difference in activity observed between CR-1-31-B (23) and silvestrol 1 was not restricted to cap-proximal polypurine tracks, but also observed with reporters where the polypurine/polypyrimidine tracks were situated 15 nt downstream from the cap (FIGS. 24A and 24B).
as §1
FIGS. 23A-23C. The presence of polypurines bases in mRNA 5′ leader regions are not universal predictors of rocaglate-responsiveness. FIG. 23A. Schematic diagram of FF/HCV/Ren mRNA reporters containing cap-proximal (AG) or (UC) dinucleotide repeats. 23B. Firefly and renilla luciferase activity in response to the indicated CR-1-31-B (23) concentrations (relative to DMSO controls) in Krebs-2 extracts programmed with 4 ng/uL of the indicated mRNAs. n=3±SD. 23C. Dose response of the indicated compounds in Krebs-2 extracts programmed with 4 ng/μL of the indicated mRNAs. n=3± SD.
FIG. 23. Dose-response of (AG)10- and (UC)10-FF/HCV/Ren mRNAs to CMLD011167, hippuristanol and pateamine A in vitro. Firefly and renilla luciferase activity in response to the indicated compound concentrations (relative to DMSO controls) in Krebs-2 extracts programmed with 4 ng/μL of the indicated mRNAs. n=3± SD.

HEK 293 cells = assay: in cellula translation of transfected (AG)10- and (UC)10-FF/HCV/Ren mRNA; format: cell-based; details: compound added 1 h after mRNA transfection, 6 h exposure
Text: We next asked if differences in behavior among rocaglates towards the (AG)10- and (UC)10-reporters observed in vitro also extended in cellula (FIG. 26B). This was important since in cells, mRNA transcripts need to compete for components of the translation initiation machinery from a complex cellular mRNA pool and this scenario is difficult to recapitulate in experiments using cell-free extracts. Following mRNA transfections, cells were exposed to compound and luciferase activity determined.
RNA Transfections. HEK 293 cells were transfected in a 24 well plate with 0.25 μg/well of in vitro synthesized capped m^7GpppG(AG)10-FF/HCV/Ren or m^7GpppG(UC)10FF/HCV/Ren mRNA and 1 h later were exposed to the indicated concentrations of compounds for an additional 6 h. Following this, extracts were prepared using passive lysis buffer (PLB, Promega) and luciferase activity measured on a Berthold Lumt LB 9507 luminometer.
FIGS. 26A-26B. In cellula activity of rocaglates. 26A. Cytotoxicity of rocaglates towards NIH/3T3 (grey circle) and the NIH/3T3 rocaglate-resistant line, eIF4A^em1JP(redtriangle). Cells were exposed to 40 nM compound for 4 days and viability was measured using the SRB assay. n=3±SD. 26B. Rocaglates show different sequence preferences for inhibiting cap-dependent translation in cellula. HEK 293 cells were transfected with 0.5 μg of in vitro synthesized capped (AG)10-FF/HCV/Ren or (UC)10-FF/HCV/Ren mRNA and 1h later exposed to the indicated concentrations of compounds for an additional 6 h, at which time extracts were prepared and luciferase activity measured. n=3 SD.
FIG. 28. In cellula dose-response of (AG)10- and (UC)10-FF/HCV/Ren mRNAs to hippuristanol and pateamine. Firefly and renilla luciferase activity in response to the indicated compound concentrations (relative to DMSO controls) following mRNA transfections in 293 cells. n=3±SD.

eIF4A1:poly r(AG)8 RNA = biological target: T1, eIF4A1:poly r(AG)8 RNA (Homo sapiens, UniProt P60842); assay: fluorescence polarization (FP) assay, eIF4A1 binding to FAM-labelled RNA; details: 500 nM eIF4A1, 10 nM FAM-labelled RNA, screen at 10 μM compound
T1 construct: His6 (N); made in house; host or cells: E. coli BL21 (DE3)
Text: Rocaglates similarly enhance RNA binding of eIF4A1 and eIF4A2. In order to rapidly evaluate the ability of rocaglates to stimulate binding of eIF4A to RNA, a fluorescence polarization (FP) assay using a FAM (fluorescein amidite)-labelled RNA probe (FIG. 18A) was used. […] Due to the high degree of shared amino acid identity between the two paralogs, their apparent similarity with respect to RNA binding activity and response to CR-1-31-B (23), and the fact that eIF4A1 is essential but eIF4A2 is not, eIF4A1 was used in the majority of our subsequent experiments.
Fluorescence Polarization (FP) Assays. Unless otherwise specified, eIF4A (500 nM) was incubated with 10 nM FAM-labelled RNA for 30 min in FP buffer (14.4 mM HEPES-NaOH (pH 8), 108 mM NaCl, 1 mM MgCl2, 14.4% glycerol, 0.1% DMSO, 2 mM DTT, 1 mM AMPPNP) at room temperature in black low volume 384 well plates (Corning 3820). FP readings were performed on a Pherastar FS microplate reader (BMG Labtech).
as §2
FIG. 21. Assessing stimulation of eIF4A1:RNA binding by rocaglates and pateamine. FAM-labelled RNA was incubated in the presence of 500 nM eIF4A1 and the indicated concentrations of compound for 30 min, after which time FP measurements were taken. Limitations in WGD-57-591 availability prevented us from extending the titrations to 100 μM. The change in FP obtained relative to vehicle controls is presented. n=3±SD. FP results of competition assays in which preformed eIF4A1:rocaglate:FAM-poly r(AG)10 complexes were incubated in the presence of poly r(AG)10 (SEQ ID NO: 39) and dissociation measured as a function of time. n=3±SD.

T1 sequence (P60842 whole entry, species assumed): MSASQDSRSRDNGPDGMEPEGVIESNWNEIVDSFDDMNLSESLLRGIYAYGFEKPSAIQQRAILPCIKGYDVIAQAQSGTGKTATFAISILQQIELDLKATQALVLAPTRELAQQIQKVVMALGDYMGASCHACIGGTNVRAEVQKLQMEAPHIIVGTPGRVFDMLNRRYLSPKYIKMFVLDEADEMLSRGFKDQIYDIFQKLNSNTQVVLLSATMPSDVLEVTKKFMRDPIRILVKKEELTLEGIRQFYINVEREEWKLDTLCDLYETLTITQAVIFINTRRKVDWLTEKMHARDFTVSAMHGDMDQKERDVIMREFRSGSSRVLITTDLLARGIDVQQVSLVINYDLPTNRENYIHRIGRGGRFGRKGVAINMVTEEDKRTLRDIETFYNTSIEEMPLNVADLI

Structure (SMILES): COc1ccc([C@@]23Oc4cc(OC)cc(OC)c4[C@@]24NC(C)=N[C@@]4(O)[C@H](C(=O)N(C)OC)[C@H]3c2ccccc2)cc1 [9aa]
IC50 [1]: 59 nM

Structure (SMILES): CCCCC1=N[C@@]2(O)[C@H](C(=O)OC)[C@@H](c3ccccc3)[C@]3(c4ccc(OC)cc4)Oc4cc(OC)cc(OC)c4[C@]23N1 [9d]
IC50 [1]: 187 nM

IC50 [1]: 60 nM
Structure (SMILES): COC(=O)[C@@H]1[C@@H](c2ccccc2)[C@]2(c3ccc(OC)cc3)Oc3cc(OC)cc(OC)c3[C@@]23NC(Cc2ccccc2)=N[C@@]13O [9e]

Structure (SMILES): COC(=O)[C@@H]1[C@@H](c2ccccc2)[C@]2(c3ccc(OC)cc3)Oc3cc(OC)cc(OC)c3[C@@]23NC(C(C)(C)C)=N[C@@]13O [9f]
IC50 [1]: 267 nM

IC50 [1]: 125 nM
Structure (SMILES): COC(=O)[C@@H]1[C@@H](c2ccccc2)[C@]2(c3ccc(OC)cc3)Oc3cc(OC)cc(OC)c3[C@@]23NC(N)=N[C@@]13O [9j]

Structure (SMILES): COCC1=N[C@@]2(O)[C@H](C(=O)OC)[C@@H](c3ccccc3)[C@]3(c4ccc(OC)cc4)Oc4cc(OC)cc(OC)c4[C@]23N1 [9k]
IC50 [1]: 64 nM

Structure (SMILES): COc1ccc([C@@]23Oc4cc(OC)cc(OC)c4[C@@]24NC(C)=N[C@@]4(O)[C@H](C(=O)N(C)C)[C@H]3c2ccccc2)cc1 [9z]
IC50 [1]: 63 nM

Structure (SMILES): CONC(=O)[C@H]1[C@@H](O)[C@@]2(O)c3c(OC)cc(OC)cc3O[C@@]2(c2ccc(Br)cc2)[C@@H]1c1ccccc1 [SDS-1-021]
inhibition of cap-dependent translation in vitro (in words) ([1]; screen at 2 μM compound): the most potent compound

Structure (SMILES): COCCN[C@]12c3c(OC)cc(OC)cc3O[C@@]1(c1ccc(OC)cc1)[C@H](c1ccccc1)[C@@H](C(=O)N(C)C)[C@H]2O [compound 18]
translation inhibition (in words) [1]: no translation inhibition

Structure (SMILES): COCCN[C@]12c3c(OC)cc(OC)cc3O[C@@]1(c1ccc(OC)cc1)[C@H](c1ccccc1)C[C@@H]2O [compound 20]
translation inhibition (in words) [1]: no translation inhibition

Structure (SMILES): COCCN[C@]12c3c(OC)cc(OC)cc3O[C@@]1(c1ccc(OC)cc1)[C@H](c1ccccc1)C[C@@H]2N [compound 22]
translation inhibition (in words) [1]: no translation inhibition

Structure (SMILES): C[C@H]1C[C@@]2(O[C@H]3C[C@H]4[C@@H]5CC[C@H]6C[C@H](O)CC[C@]6(C)[C@H]5[C@@H](O)C[C@]4(C)[C@H]3[C@@]2(C)O)OC1(C)C [hippuristanol]
inhibition of (AG)10 versus (UC)10 reporter in vitro (in words) [2]: equally repressed cap-dependent translation from both
inhibition of (AG)10 versus (UC)10 reporter in cellula (in words) (HEK 293 cells): inhibited both reporters equally

Structure (SMILES): CC(/C=C/C(C)=C/[C@@H]1Cc2nc(cs2)[C@@H](C)C[C@@H](N)CC(=O)O[C@@H](C)C/C(C)=C/C=C\C(=O)O1)=C\CN(C)C [pateamine A]
stimulation of eIF4A1:RNA binding (in words) (eIF4A1:poly r(AG)8 RNA): potently induced binding to all RNA substrates tested
inhibition of (AG)10 versus (UC)10 reporter in vitro (in words) [2]: equally repressed cap-dependent translation from both
inhibition of (AG)10 versus (UC)10 reporter in cellula (in words) (HEK 293 cells): inhibited both reporters equally
